Data on 24 molecules can be found in patent US11584734B2, “Tricyclic compounds as histone methyltransferase inhibitors” (GLOBAL BLOOD THERAPEUTICS, INC., priority 2017, dated 2023).

As a reminder, the IC50 is the concentration needed to halve the response being measured. The low end stands for greater potency in that assay, the high end for weaker potency in that assay.

The structures appear in SMILES notation.

In the assay the target is T1, G9a (Homo sapiens, UniProt Q96KQ7).
T1 sequence (Q96KQ7 1-1210): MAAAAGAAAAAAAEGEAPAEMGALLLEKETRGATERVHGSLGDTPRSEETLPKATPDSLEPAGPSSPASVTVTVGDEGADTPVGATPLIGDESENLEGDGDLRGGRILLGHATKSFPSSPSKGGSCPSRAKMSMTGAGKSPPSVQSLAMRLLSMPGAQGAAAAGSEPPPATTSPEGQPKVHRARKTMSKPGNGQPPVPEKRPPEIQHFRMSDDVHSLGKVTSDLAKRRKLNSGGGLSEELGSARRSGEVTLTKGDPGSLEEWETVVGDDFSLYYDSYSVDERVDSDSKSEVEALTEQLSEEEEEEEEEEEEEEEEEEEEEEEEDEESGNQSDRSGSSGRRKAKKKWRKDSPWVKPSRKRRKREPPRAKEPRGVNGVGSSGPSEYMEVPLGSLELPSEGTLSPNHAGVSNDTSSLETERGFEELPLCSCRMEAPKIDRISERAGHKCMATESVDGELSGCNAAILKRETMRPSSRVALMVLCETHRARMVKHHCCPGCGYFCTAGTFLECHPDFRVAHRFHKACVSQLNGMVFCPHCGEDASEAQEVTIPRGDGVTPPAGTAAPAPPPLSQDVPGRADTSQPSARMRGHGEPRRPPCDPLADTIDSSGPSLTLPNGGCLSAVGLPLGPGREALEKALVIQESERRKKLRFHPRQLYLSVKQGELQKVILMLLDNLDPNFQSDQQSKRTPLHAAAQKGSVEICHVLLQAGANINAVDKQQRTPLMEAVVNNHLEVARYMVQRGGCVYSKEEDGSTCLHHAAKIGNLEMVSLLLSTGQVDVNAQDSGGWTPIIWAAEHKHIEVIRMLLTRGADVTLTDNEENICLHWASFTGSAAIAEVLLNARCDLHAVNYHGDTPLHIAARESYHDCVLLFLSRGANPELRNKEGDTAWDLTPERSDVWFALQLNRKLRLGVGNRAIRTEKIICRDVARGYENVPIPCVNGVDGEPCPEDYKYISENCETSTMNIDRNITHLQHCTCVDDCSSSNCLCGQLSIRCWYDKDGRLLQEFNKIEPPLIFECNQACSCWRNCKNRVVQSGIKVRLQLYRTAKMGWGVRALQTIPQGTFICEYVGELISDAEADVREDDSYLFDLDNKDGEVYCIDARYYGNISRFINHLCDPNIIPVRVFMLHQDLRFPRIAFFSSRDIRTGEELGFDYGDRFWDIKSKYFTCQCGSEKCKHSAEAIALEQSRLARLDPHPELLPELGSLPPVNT
Kind of assay: G9a AlphaLISA enzymatic activity assay. The class given is biochemical. The following applies: negative log of IC50 in molar, 0.15 nM G9a, 15 uM S-adenosyl-methionine, 100 nM biotinylated histone 3 peptide (1-21). The source says: The G9a AlphaLISA assay was used to detect the methyl modifications of a biotinylated histone H3 peptide by the compounds. These modifications are done by the histone methyl transferase activity of the G9a enzyme. The assay consists of reading a chemiluminescent signal at 615 nm; this signal is generated by a laser excitation at 680 nm that transfers a reactive singlet oxygen between the donor beads and acceptor beads. Donor beads are streptavidin conjugated and bind to the biotin on the peptide. Acceptor beads are conjugated with an antibody that recognizes the specific G9a methyl mark on the peptide. If there is a methyl mark on the peptide, the acceptor beads will bind to the peptide. Upon binding, the acceptor beads will be in close proximity (<200 nm) of the donor beads and when the donor beads are excited, the transfer of the oxygen can occur and a strong signal will be generated. If there is no methyl mark, the interaction between beads will not occur and signal will be at background levels.
For the assay, the following buffer was used to set up reactions: 50 mM Tris-HCl pH9, 50 mM NaCl, 0.01% Tween-20 and 1 mM DTT (added fresh prior to starting the reactions). […] The reaction is incubated at rt for 1 hour and subsequently quenched by the addition of the acceptor beads (anti-H3k9me2 AlphaLISA acceptor beads, PerkinElmer #AL117) at a final concentration of 20 ug/mL. The acceptor beads are incubated for 1 hour. After 1 hour, the donor beads are added at a final concentration of 20 ug/mL (Alpha Streptavidin donor beads, PerkinElmer #6760002). Donor beads are incubated for 0.5 hours. Both donor and acceptor beads are resuspended in AlphaLISA 5X Epigenetics Buffer 1 Kit (PerkinElmer #AL008) prior to addition to the reaction. All manipulations and incubations with the donor and acceptor beads are done in subdued light. Signal is detected in an EnVision plate reader in Alpha mode. See ACS Med Chem Lett. 2014; 5(2):205-9.
Percent inhibition was calculated for each compound dilution and the concentration that produced 50% inhibition was calculated. This value is presented as the pIC50, which is the negative log of the IC50 value in molar.
A general note: Alpha assays give light when donor and acceptor beads are brought close together.
In turn, `COc1cc2c(NC[C@@H]3CCOC3)c3c(nc2cc1OCCCN1CCCC1)CCC3` [Example 29, 7-methoxy-N-{[(3S)-oxolan-3-yl]methyl}-6-[3-(pyrrolidin-1-yl)propoxy]-1H,2H,3H-cyclopenta[b]quinolin-9-amine] showed a 50% inhibitory concentration (IC50) of 6.03 nM.

`CCNc1c2c(nc3cc(OCCCN4CCCC4)c(OC(F)F)cc13)CCC2` [Example 30, 7-(difluoromethoxy)-N-ethyl-6-[3-(pyrrolidin-1-yl)propoxy]-1H,2H,3H-cyclopenta[b]quinolin-9-amine] showed an IC50 of 35.5 nM.

`CCCNc1c2c(nc3cc(OCCCN4CCCC4)c(OC(F)F)cc13)CCC2` [Example 31, 7-(difluoromethoxy)-N-propyl-6-[3-(pyrrolidin-1-yl)propoxy]-1H,2H,3H-cyclopenta[b]quinolin-9-amine] gave an IC50 of 110 nM.

For `COCCNc1c2c(nc3cc(OCCCN4CCCC4)c(OC(F)F)cc13)CCC2` [Example 32, 7-(difluoromethoxy)-N-(2-methoxyethyl)-6-[3-(pyrrolidin-1-yl)propoxy]-1H,2H,3H-cyclopenta[b]quinolin-9-amine], half-maximal inhibition (IC50) was put at 107 nM.

The molecule `COCCCNc1c2c(nc3cc(OCCCN4CCCC4)c(OC(F)F)cc13)CCC2` [Example 33, 7-(difluoromethoxy)-N-(3-methoxypropyl)-6-[3-(pyrrolidin-1-yl)propoxy]-1H,2H,3H-cyclopenta[b]quinolin-9-amine] showed an IC50 of 145 nM.

On to `CNc1c2c(nc3cc(OCCCN4CCCC4)c(OC(F)F)cc13)CCC2` [Example 34, 7-(difluoromethoxy)-N-methyl-6-[3-(pyrrolidin-1-yl)propoxy]-1H,2H,3H-cyclopenta[b]quinolin-9-amine], for which the IC50 is 28.8 nM.

As for `CC(C)Nc1c2c(nc3cc(OCCCN4CCCC4)c(OC(F)F)cc13)CCC2` [Example 35, 7-(difluoromethoxy)-N-(propan-2-yl)-6-[3-(pyrrolidin-1-yl)propoxy]-1H,2H,3H-cyclopenta[b]quinolin-9-amine], the IC50 is 63.1 nM.

As to `CNc1c2c(nc3cc(OCCCN4CCCC4)c(OC)cc13)C1CCCC2C1` (stereo not drawn) [Example 36, 7-methoxy-N-methyl-6-[3-(pyrrolidin-1-yl)propoxy]-3-azatetracyclo[10.3.1.0^{2,11}.0^{4,9}]hexadeca-2,4,6,8,10-pentaen-10-amine], the IC50 was 19.5 nM.

Take `COCCNc1c2c(nc3cc(OCCCN4CCCC4)c(OC)cc13)CCCCC2` [Example 37, 2-methoxy-N-(2-methoxyethyl)-3-[3-(pyrrolidin-1-yl)propoxy]-6H,7H,8H,9H,10H-cyclohepta[b]quinolin-11-amine]: the IC50 was 107 nM.

Molecule `COC[C@H](C)Nc1c2c(nc3cc(OCCCN4CCCC4)c(OC)cc13)CCCCC2` [Example 38, 2-methoxy-N-[(2S)-1-methoxypropan-2-yl]-3-[3-(pyrrolidin-1-yl)propoxy]-6H,7H,8H,9H,10H-cyclohepta[b]quinolin-11-amine] gave an IC50 of 214 nM.

Regarding `COc1cc2c(NCCC(C)(C)O)c3c(nc2cc1OCCCN1CCCC1)CCCCC3` [Example 39, 4-({2-methoxy-3-[3-(pyrrolidin-1-yl)propoxy]-6H,7H,8H,9H,10H-cyclohepta[b]quinolin-11-yl}amino)-2-methylbutan-2-ol], inhibition was half-maximal at 57.5 nM (IC50).

Consider `COc1cc2c(NCC3CC3)c3c(nc2cc1OCC(O)CN1CCCC1)CCC3` (stereo not drawn) [Example 40, 1-({9-[(cyclopropylmethyl)amino]-7-methoxy-1H,2H,3H-cyclopenta[b]quinolin-6-yl}oxy)-3-(pyrrolidin-1-yl)propan-2-ol], for which the IC50 is 40.7 nM.

`CCOCCNc1c2c(nc3cc(COCCN4CCCC4)c(OC)cc13)CCC2` [Example 41, N-(2-ethoxyethyl)-7-methoxy-6-{[2-(pyrrolidin-1-yl)ethoxy]methyl}-1H,2H,3H-cyclopenta[b]quinolin-9-amine]: inhibition was half-maximal at 33.9 nM (IC50).

As to `FC(F)Oc1cc2c(NCC3CC3)c3c(nc2cc1OCCCN1CCCC1)CCC3` [Example 42, N-(cyclopropylmethyl)-7-(difluoromethoxy)-6-[3-(pyrrolidin-1-yl)propoxy]-1H,2H,3H-cyclopenta[b]quinolin-9-amine], 97.7 nM corresponded to half-maximal inhibition (IC50).

For `COCCNc1c2c(nc3cc(OCCCN4CCCC4)c(OC)cc13)C1CCCC2C1` (stereo not drawn) [Example 43, 7-methoxy-N-(2-methoxyethyl)-6-[3-(pyrrolidin-1-yl)propoxy]-3-azatetracyclo[10.3.1.0^{2,11}.0^{4,9}]hexadeca-2,4,6,8,10-pentaen-10-amine], the midpoint of inhibition, the IC50, lay at 39.8 nM.

The molecule `COc1cc2c(NCC3CC3)c3c(nc2cc1OC[C@H](C)CN1CCCC1)CCC3` [Example 44, N-(cyclopropylmethyl)-7-methoxy-6-[(2R)-2-[(pyrrolidin-1-yl)methyl]propoxy]-1H,2H,3H-cyclopenta[b]quinolin-9-amine] showed an IC50 of 166 nM.

`COc1cc2c(NC(C)C)c3c(nc2cc1OCCOCCN(C)C)CCC3` [Example 45, 6-{2-[2-(dimethylamino)ethoxy]ethoxy}-7-methoxy-N-(propan-2-yl)-1H,2H,3H-cyclopenta[b]quinolin-9-amine] showed an IC50 of 17.4 nM.

For the molecule `CNc1c2c(nc3cc(OCCCNC(C)=O)c(OC)cc13)CCC2` [Example 46, N-(3-{[7-methoxy-9-(methylamino)-1H,2H,3H-cyclopenta[b]quinolin-6-yl]oxy}propyl)acetamide], the half-maximal inhibitory concentration (IC50) is 3090 nM.

The molecule `CNc1c2c(nc3cc(OCCCN4C5CCC4CC5)c(OC)cc13)CCC2` [Example 47, 6-(3-{7-azabicyclo[2.2.1]heptan-7-yl}propoxy)-7-methoxy-N-methyl-1H,2H,3H-cyclopenta[b]quinolin-9-amine] gave an IC50 of 1350 nM.

`CNc1c2c(nc3cc(OCCCN4CCCC4)c(OC(F)(F)F)cc13)CCC2` [Example 48, N-methyl-6-[3-(pyrrolidin-1-yl)propoxy]-7-(trifluoromethoxy)-1H,2H,3H-cyclopenta[b]quinolin-9-amine] gave an IC50 of 603 nM.

As to `CCNc1c2c(nc3cc(OCCCN4CCCC4)c(OC(F)(F)F)cc13)CCC2` [Example 49, N-ethyl-6-[3-(pyrrolidin-1-yl)propoxy]-7-(trifluoromethoxy)-1H,2H,3H-cyclopenta[b]quinolin-9-amine], the IC50 was 646 nM.

In turn, `COCCNc1c2c(nc3cc(OCCCN4CCCC4)c(OC(F)(F)F)cc13)CCC2` [Example 50, N-(2-methoxyethyl)-6-[3-(pyrrolidin-1-yl)propoxy]-7-(trifluoromethoxy)-1H,2H,3H-cyclopenta[b]quinolin-9-amine] showed an IC50 of 776 nM.

As to `CNc1c2c(nc3cc(OCCCN(C)CCF)c(OC)cc13)CCC2` [Example 55, 6-{3-[(2-fluoroethyl)(methyl)amino]propoxy}-7-methoxy-N-methyl-1H,2H,3H-cyclopenta[b]quinolin-9-amine], the IC50 is 813 nM.

For `CCNc1c2c(nc3cc(OCCCN(C)CCF)c(OC)cc13)CCC2` [Example 56, N-ethyl-6-{3-[(2-fluoroethyl)(methyl)amino]propoxy}-7-methoxy-1H,2H,3H-cyclopenta[b]quinolin-9-amine], half-maximal inhibition (IC50) was put at 1050 nM.
